Like-named read-outs stand apart in the source and are kept apart here.
How the values were obtained:
Type in all cases: cell-based
[1] = biological target: T1, human dopamine transporter/SLC6A3 (DAT) (Homo sapiens, UniProt Q01959); assay: Cellular uptake experiments: [3H]-dopamine reuptake inhibition in transporter-expressing HEK293 cells; details: for IC50: cells stably expressing DAT, [3H]-dopamine 1 µM, screening cut-off 50 µM; for activity on DAT (reuptake inhibition), in words: at 50 µM
T1 construct: expressed in transfected cells; host or cells: HEK293
T1 sequence (Q01959 whole entry): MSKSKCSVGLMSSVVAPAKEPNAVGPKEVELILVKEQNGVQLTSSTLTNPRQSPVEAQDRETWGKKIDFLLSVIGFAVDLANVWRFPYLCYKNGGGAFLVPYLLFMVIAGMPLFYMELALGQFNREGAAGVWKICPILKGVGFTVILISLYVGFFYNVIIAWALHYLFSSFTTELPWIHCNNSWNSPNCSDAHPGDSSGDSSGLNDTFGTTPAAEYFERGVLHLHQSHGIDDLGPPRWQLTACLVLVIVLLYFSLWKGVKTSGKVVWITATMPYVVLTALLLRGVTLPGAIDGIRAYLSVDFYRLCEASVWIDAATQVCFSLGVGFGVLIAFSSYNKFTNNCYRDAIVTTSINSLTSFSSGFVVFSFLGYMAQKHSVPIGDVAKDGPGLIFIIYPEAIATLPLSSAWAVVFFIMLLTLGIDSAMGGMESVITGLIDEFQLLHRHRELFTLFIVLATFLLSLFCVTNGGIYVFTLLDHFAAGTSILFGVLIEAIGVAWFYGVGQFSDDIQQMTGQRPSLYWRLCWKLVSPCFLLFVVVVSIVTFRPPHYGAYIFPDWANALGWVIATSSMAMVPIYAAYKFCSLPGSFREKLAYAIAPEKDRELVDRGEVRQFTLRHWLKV
Procedure: (§1) Cell culture. Human embryonic kidney (HEK) 293 or SK-N-MC (human neuroblastoma) cells were grown in minimum essential medium with Earle’s salts and L-glutamine, 10% heat-inactivated fetal bovine serum, and 50 mg/L gentamicin. Cells were grown in 100- or 60-mm diameter tissue culture dishes (polystyrene, Falcon) at 37 °C under an atmosphere of 5% CO2/95% air. The human dopamine transporter/SLC6A3 (DAT), noradrenaline transporter/SLC6A2 (NET), or human serotonin transporter/SLC6A4 (SERT) cDNA was stably expressed using methods as described previously.
(§2) Cellular uptake experiments. The transporter-expressing HEK293 cells were seeded in poly-D-lysine-coated 24-well plates (1 × 10^5 cells/well) and, one day later, each well was washed with 0.5 mL uptake buffer and incubated with 0.5 mL buffer containing various concentrations of the drugs. Uptake was started by the addition of [^3H]-dopamine, [^3H]-noradrenaline, or [^3H]-serotonin at a final concentration of 1 µM (specific activity 0.14 Ci/mmol) after 5 min of preincubation. After incubation for 2.5 min (SERT-cells: 5 min) at 25 °C, it was stopped by aspirating the uptake buffer and washing each well twice with 1 mL ice-cold buffer. Nonspecific uptake was determined in the presence of 10 µM mazindol (DAT- and NET-cells) or 10 µM clomipramine (SERT-cells). The radioactivity remaining in each well was determined by incubating with 0.4 mL 1% sodium dodecyl sulphate and transferring this solution into scintillation vials containing 3 mL of scintillation cocktail (Ultima Gold MV, Packard, Dovners Grove, IL, USA). The uptake buffer consisted of (mmol/L): 4 Tris–HCl; 6.25 4-(2-hydroxyethyl)-1-piperazineethanesulfonic acid (HEPES); 120 NaCl; 5 KCl; 1.2 CaCl2; 1.2 MgSO4; 5.6 D-glucose; 0.5 ascorbic acid; pH 7.1.

[2] = biological target: T2, noradrenaline transporter/SLC6A2 (NET) (Homo sapiens, UniProt P23975); assay: Cellular uptake experiments: [3H]-noradrenaline reuptake inhibition in transporter-expressing HEK293 cells; details: for activity on NET (reuptake inhibition), in words: at 50 µM / tested concentration range
T2 construct: expressed in transfected cells; host or cells: HEK293
T2 sequence (P23975 whole entry): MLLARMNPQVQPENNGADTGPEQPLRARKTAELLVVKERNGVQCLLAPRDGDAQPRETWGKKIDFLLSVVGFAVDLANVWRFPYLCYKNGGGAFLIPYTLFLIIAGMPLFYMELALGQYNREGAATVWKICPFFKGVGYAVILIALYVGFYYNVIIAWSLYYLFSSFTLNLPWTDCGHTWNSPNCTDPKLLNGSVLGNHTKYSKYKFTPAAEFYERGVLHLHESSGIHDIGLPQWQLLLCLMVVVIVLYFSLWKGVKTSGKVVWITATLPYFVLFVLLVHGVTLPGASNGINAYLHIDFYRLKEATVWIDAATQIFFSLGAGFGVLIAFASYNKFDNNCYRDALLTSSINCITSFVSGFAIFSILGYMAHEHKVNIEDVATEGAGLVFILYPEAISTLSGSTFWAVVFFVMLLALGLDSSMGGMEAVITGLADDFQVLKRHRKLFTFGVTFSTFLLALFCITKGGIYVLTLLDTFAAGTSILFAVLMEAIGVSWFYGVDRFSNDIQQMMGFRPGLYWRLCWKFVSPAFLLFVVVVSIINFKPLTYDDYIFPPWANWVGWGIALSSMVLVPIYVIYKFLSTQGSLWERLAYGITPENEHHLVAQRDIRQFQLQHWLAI
Procedure: as §1, §2

[3] = biological target: T3, human serotonin transporter/SLC6A4 (SERT) (Homo sapiens, UniProt P31645); assay: Cellular uptake experiments: [3H]-serotonin reuptake inhibition in transporter-expressing HEK293 cells
T3 construct: expressed in transfected cells; host or cells: HEK293
T3 sequence (P31645 whole entry): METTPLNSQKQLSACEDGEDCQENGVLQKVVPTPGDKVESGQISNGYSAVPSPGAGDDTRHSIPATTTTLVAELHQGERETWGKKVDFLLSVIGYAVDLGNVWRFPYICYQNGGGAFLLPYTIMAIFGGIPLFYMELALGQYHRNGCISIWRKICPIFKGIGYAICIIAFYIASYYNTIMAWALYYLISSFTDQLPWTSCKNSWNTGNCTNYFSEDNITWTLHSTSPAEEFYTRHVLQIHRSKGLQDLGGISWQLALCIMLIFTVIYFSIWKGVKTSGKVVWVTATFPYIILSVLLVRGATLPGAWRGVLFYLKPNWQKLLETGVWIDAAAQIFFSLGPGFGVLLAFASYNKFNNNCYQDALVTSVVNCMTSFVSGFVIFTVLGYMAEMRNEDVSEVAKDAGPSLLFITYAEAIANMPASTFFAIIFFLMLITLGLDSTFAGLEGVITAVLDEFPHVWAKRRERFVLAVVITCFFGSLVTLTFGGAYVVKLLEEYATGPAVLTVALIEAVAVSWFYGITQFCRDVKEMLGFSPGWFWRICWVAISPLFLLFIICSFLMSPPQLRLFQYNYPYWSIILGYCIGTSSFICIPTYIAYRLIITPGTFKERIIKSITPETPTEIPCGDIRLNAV
Procedure: as §1, §2

[4] = read-out: Reuptake Inhibition (IC50 ± SE, µM) DAT
[5] = cells stably expressing NET, [3H]-noradrenaline 1 µM, screening cut-off 50 µM, read-out: Reuptake Inhibition (IC50 ± SE, µM) NET
[6] = cells stably expressing SERT; [3H]-serotonin 1 µM; screening cut-off 50 µM; read-out: Reuptake Inhibition (IC50 ± SE, µM) SERT
[7] = at 50 µM / tested concentration range
[8] = Reuptake Inhibition (IC50 ± SE, µM) DAT
[9] = Reuptake Inhibition (IC50 ± SE, µM) NET, cells stably expressing NET, [3H]-noradrenaline 1 µM, screening cut-off 50 µM
[10] = Reuptake Inhibition (IC50 ± SE, µM) SERT, cells stably expressing SERT; [3H]-serotonin 1 µM; screening cut-off 50 µM

| Compound | IC50 [1, 4] [µM] | IC50 [2, 5] [µM] | IC50 [3, 6] [µM] | IC50 [1, 8] [µM] | IC50 [2, 9] [µM] | IC50 [3, 10] [µM] | further results |
| --- | --- | --- | --- | --- | --- | --- | --- |
| [O-][S@+](Cc1cccs1)[C@H](c1ccccc1)c1ccccc1F [Compound 5a, (R,R)-2-((((2-fluorophenyl)(phenyl)methyl)sulfinyl)methyl)thiophene] | 32.8 ± 0.2 | > 50 | > 50 | – | – | – | – |
| [O-][S+](Cc1cccs1)C(c1ccccc1)c1cccc(F)c1 (stereo not drawn) [Compound 5b, 2-((((3-fluorophenyl)(phenyl)methyl)sulfinyl)methyl)thiophene] | 3.2 ± 0.4 | > 50 | > 50 | – | – | – | – |
| [O-][S+](Cc1cccs1)C(c1ccccc1)c1ccc(F)cc1 (stereo not drawn) [Compound 5c, 2-((((4-fluorophenyl)(phenyl)methyl)sulfinyl)methyl)thiophene] | 7.8 ± 0.7 | > 50 | > 50 | – | – | – | – |
| [O-][S@+](Cc1cccs1)[C@H](c1ccccc1)c1ccccc1Cl [Compound 5d, (R,R)-2-((((2-chlorophenyl)(phenyl)methyl)sulfinyl)methyl)thiophene] | > 50 | > 50 | > 50 | – | – | – | activity on DAT (reuptake inhibition), in words [1]: did not achieve ≥50% of radioligand displacement; activity on NET (reuptake inhibition), in words [2]: did not achieve ≥50% of radioligand displacement; activity on SERT (reuptake inhibition), in words [3, 7]: did not achieve ≥50% of radioligand displacement |
| [O-][S@@+](Cc1cccs1)[C@H](c1ccccc1)c1cccc(Cl)c1 [Compound 5e, (S,R)-2-((((3-chlorophenyl)(phenyl)methyl)sulfinyl)methyl)thiophene] | – | – | – | 3 ± 0.1 | > 50 | > 50 | – |
| [O-][S@@+](Cc1cccs1)[C@H](c1ccccc1)c1ccc(Cl)cc1 [Compound 5f, (S,R)-2-((((4-chlorophenyl)(phenyl)methyl)sulfinyl)methyl)thiophene] | – | – | – | 12 ± 1 | > 50 | > 50 | – |
| [O-][S+](Cc1cccs1)C(c1ccccc1)c1ccccc1Br (stereo not drawn) [Compound 5g, 2-((((2-bromophenyl)(phenyl)methyl)sulfinyl)methyl)thiophene] | – | – | – | > 50 | > 50 | > 50 | activity on DAT (reuptake inhibition), in words [1]: no effect; activity on NET (reuptake inhibition), in words [2]: no effect; activity on SERT (reuptake inhibition), in words [3, 7]: no effect |
| [O-][S@@+](Cc1cccs1)[C@H](c1ccccc1)c1cccc(Br)c1 [Compound 5h, (S,R)-2-((((3-bromophenyl)(phenyl)methyl)sulfinyl)methyl)thiophene] | – | – | – | 1.8 ± 0.4 | – | > 50 | IC50 [2]: > 50 µM |
| [O-][S+](Cc1cccs1)C(c1ccccc1)c1ccccc1I (stereo not drawn) [Compound 5i, 2-((((2-iodophenyl)(phenyl)methyl)sulfinyl)methyl)thiophene] | – | – | – | > 50 | > 50 | > 50 | – |
| [O-][S+](Cc1cccs1)C(c1ccccc1)c1cccc(I)c1 (stereo not drawn) [Compound 5j, 2-((((3-iodophenyl)(phenyl)methyl)sulfinyl)methyl)thiophene] | – | – | – | 2.09 ± 0.21 | > 50 | > 50 | – |
| [O-][S@@+](Cc1cccs1)[C@H](c1ccccc1)c1ccc(I)cc1 [Compound 5k, (S,R)-2-((((4-iodophenyl)(phenyl)methyl)sulfinyl)methyl)thiophene] | – | – | – | 5.1 ± 0.6 | > 50 | > 50 | – |
| Cc1ccccc1C(c1ccccc1)[S+]([O-])Cc1cccs1 (stereo not drawn) [Compound 5l, 2-(((phenyl(o-tolyl)methyl)sulfinyl)methyl)thiophene] | 15.6 ± 1 | > 50 | > 50 | – | – | – | – |
| Cc1cccc([C@@H](c2ccccc2)[S@@+]([O-])Cc2cccs2)c1 [Compound 5m, (S,R)-2-(((phenyl(m-tolyl)methyl)sulfinyl)methyl)thiophene] | – | – | – | 2.2 ± 0.4 | > 50 | > 50 | – |
| Cc1ccc(C(c2ccccc2)[S+]([O-])Cc2cccs2)cc1 (stereo not drawn) [Compound 5n, 2-(((phenyl(p-tolyl)methyl)sulfinyl)methyl)thiophene] | 3.97 ± 0.21 | – | > 50 | – | > 50 | – | – |
| [O-][S+](Cc1cccs1)C(c1ccccc1)c1ccccc1C(F)(F)F (stereo not drawn) [Compound 5o, 2-(((phenyl(2-(trifluoromethyl)phenyl)methyl)sulfinyl)methyl)thiophene] | – | – | – | > 50 | 25 ± 1 | > 50 | – |
| [O-][S+](Cc1cccs1)C(c1ccccc1)c1cccc(C(F)(F)F)c1 (stereo not drawn) [Compound 5p, 2-(((phenyl(3-(trifluoromethyl)phenyl)methyl)sulfinyl)methyl)thiophene] | – | – | – | 5 ± 1 | > 50 | > 50 | – |
| [O-][S+](Cc1cccs1)C(c1ccccc1)c1ccc(C(F)(F)F)cc1 (stereo not drawn) [Compound 5q, 2-(((phenyl(4-(trifluoromethyl)phenyl)methyl)sulfinyl)methyl)thiophene] | – | – | – | 17 ± 2 | > 50 | > 50 | – |
| COc1ccccc1[C@@H](c1ccccc1)[S@+]([O-])Cc1cccs1 [Compound 5r, (R,R)-2-((((2-methoxyphenyl)(phenyl)methyl)sulfinyl)methyl)thiophene] | – | – | – | 31 ± 8 | > 50 | > 50 | – |
| COc1cccc(C(c2ccccc2)[S+]([O-])Cc2cccs2)c1 (stereo not drawn) [Compound 5s, 2-((((3-methoxyphenyl)(phenyl)methyl)sulfinyl)methyl)thiophene] | – | – | – | 2.89 ± 0.47 | > 50 | > 50 | – |
| COc1ccc([C@H](c2ccccc2)[S@@+]([O-])Cc2cccs2)cc1 [Compound 5t, (S,S)-2-((((4-methoxyphenyl)(phenyl)methyl)sulfinyl)methyl)thiophene] | – | – | – | 16 ± 6 | > 50 | > 50 | – |
| [O-][S+](Cc1cccs1)C(c1ccc(F)cc1)c1ccc(Cl)cc1 (stereo not drawn) [Compound 5u, 2-((((4-chlorophenyl)(4-fluorophenyl)methyl)sulfinyl)methyl)thiophene] | – | – | – | 4.5 ± 1.8 | > 50 | > 50 | – |
| [O-][S@@+](Cc1cccs1)[C@@H](c1ccccc1)c1ccccc1F [Compound 6a, (S,S)-2-((((2-fluorophenyl)(phenyl)methyl)sulfinyl)methyl)thiophene] | 13.3 ± 1.6 | > 50 | > 50 | – | – | – | – |
| [O-][S+](Cc1cccs1)C(c1ccccc1)c1cccc(F)c1 (stereo not drawn) [Compound 6b, 2-((((3-fluorophenyl)(phenyl)methyl)sulfinyl)methyl)thiophene] | 28 ± 7 | > 50 | > 50 | – | – | – | – |
| [O-][S+](Cc1cccs1)C(c1ccccc1)c1ccc(F)cc1 (stereo not drawn) [Compound 6c, 2-((((4-fluorophenyl)(phenyl)methyl)sulfinyl)methyl)thiophene] | 10.1 ± 0.3 | > 50 | > 50 | – | – | – | – |
| [O-][S@@+](Cc1cccs1)[C@@H](c1ccccc1)c1ccccc1Cl [Compound 6d, (S,S)-2-((((2-chlorophenyl)(phenyl)methyl)sulfinyl)methyl)thiophene] | 14.4 ± 2.4 | > 50 | > 50 | – | – | – | – |
| [O-][S@+](Cc1cccs1)[C@@H](c1ccccc1)c1cccc(Cl)c1 [Compound 6e, (R,S)-2-((((3-chlorophenyl)(phenyl)methyl)sulfinyl)methyl)thiophene] | – | – | – | 14.1 ± 0.5 | > 50 | > 50 | – |
| [O-][S@+](Cc1cccs1)[C@@H](c1ccccc1)c1ccc(Cl)cc1 [Compound 6f, (R,S)-2-((((4-chlorophenyl)(phenyl)methyl)sulfinyl)methyl)thiophene] | – | – | – | 46 ± 1 | > 50 | > 50 | – |
| [O-][S+](Cc1cccs1)C(c1ccccc1)c1ccccc1Br (stereo not drawn) [Compound 6g, 2-((((2-bromophenyl)(phenyl)methyl)sulfinyl)methyl)thiophene] | – | – | – | 12.1 ± 1 | – | – | IC50 ([2]; read-out: Reuptake Inhibition (IC50 ± SE, µM) NET, cells stably expressing NET, [3H]-noradrenaline 1 µM, screening cut-off 50 µM): > 50 µM; IC50 ([3]; read-out: Reuptake Inhibition (IC50 ± SE, µM) SERT; cells stably expressing SERT; [3H]-serotonin 1 µM; screening cut-off 50 µM): > 50 µM |
| [O-][S@+](Cc1cccs1)[C@@H](c1ccccc1)c1cccc(Br)c1 [Compound 6h, (R,S)-2-((((3-bromophenyl)(phenyl)methyl)sulfinyl)methyl)thiophene] | – | – | – | 15 ± 1 | – | > 50 | IC50 [2]: > 50 µM |

Source: PMC10527105, “Chirality Matters: Fine-Tuning of Novel Monoamine Reuptake Inhibitors Selectivity through Manipulation of Stereochemistry” (Biomolecules, 2023)
